# Results: ChEMBL document CHEMBL1201862, “PubChem BioAssay data set” (2004)
#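 Growth conditions: 96-well plates. Treatment: test compound, 48 hours, 5 concentrations. Analysis: linear interpolation between bracketing concentrations; unreached endpoints set to highest concentration. Here, GI50 denotes the concentration required for 50% inhibition of growth.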 Calls of active or inactive are those of the source. Rule as the data show it: active = GI50 up to about 1.1 µM and inactive = higher.
# Assays:
# Test in all cases: NCI-60 cell line screen, 48 h
# SNB-75 = test system: SNB-75
# UACC-257 = test system: UACC-257
# NCI/ADR-RES = test system: NCI/ADR-RES
# LOX IMVI = test system: LOX IMVI
# UO-31 = test system: UO-31
# HT-29 = test system: HT-29
# U-251 = test system: U-251
# RPMI-8226 = test system: RPMI-8226
# T47D = test system: T47D
# MOLT-4 = test system: MOLT-4
# MDA-N = test system: MDA-N
# SN12C = test system: SN12C
# HCT-116 = test system: HCT-116
# OVCAR-8 = test system: OVCAR-8
# A549 = test system: A549
# CCRF-CEM = test system: CCRF-CEM
# BT-549 = test system: BT-549
# MDA-MB-231 = test system: MDA-MB-231
# SNB-19 = test system: SNB-19
SMILES,GI50 (SNB-75),GI50 (UACC-257),GI50 (NCI/ADR-RES),GI50 (LOX IMVI),GI50 (UO-31),GI50 (HT-29),GI50 (U-251),GI50 (RPMI-8226),GI50 (T47D),GI50 (MOLT-4),GI50 (MDA-N),GI50 (SN12C),GI50 (HCT-116),GI50 (OVCAR-8),GI50 (A549),GI50 (CCRF-CEM),GI50 (BT-549),GI50 (MDA-MB-231),GI50 (SNB-19)
c1cc(-c2ccc(-c3ccsc3)s2)cs1,23.9 µM (inactive),> 100 µM (inactive),30.4 µM (inactive),66.7 µM (inactive),28.1 µM (inactive),39.5 µM (inactive),19.5 µM (inactive),> 100 µM (inactive),> 100 µM (inactive),70.6 µM (inactive),> 100 µM (inactive),> 100 µM (inactive),> 100 µM (inactive),48.8 µM (inactive),22.4 µM (inactive),12.9 µM (inactive),,,
CC(O)CNC(=O)Nc1c(C(F)(F)F)cc(-c2ccccc2)[nH]c1=O (stereo not drawn),,> 100 µM (inactive),> 100 µM (inactive),> 100 µM (inactive),> 100 µM (inactive),> 100 µM (inactive),> 100 µM (inactive),,> 100 µM (inactive),> 100 µM (inactive),,> 100 µM (inactive),> 100 µM (inactive),> 100 µM (inactive),> 100 µM (inactive),13.8 µM (inactive),> 100 µM (inactive),> 100 µM (inactive),> 100 µM (inactive)
COc1ccc([I+]c2ccc(OC)cc2)cc1,28.9 µM (inactive),11.6 µM (inactive),> 100 µM (inactive),28.6 µM (inactive),> 100 µM (inactive),39 µM (inactive),34 µM (inactive),44.1 µM (inactive),> 95.7 µM (inactive),> 100 µM (inactive),,40.8 µM (inactive),,22.1 µM (inactive),1.87 µM (inactive),74.5 µM (inactive),,> 100 µM (inactive),96.8 µM (inactive)
CC(C)[Si](OC1=C(c2ccccc2)C(NC(=O)/C=C/c2ccc([N+](=O)[O-])cc2)CCC1)(C(C)C)C(C)C (stereo not drawn),> 100 µM (inactive),> 100 µM (inactive),> 100 µM (inactive),> 100 µM (inactive),> 100 µM (inactive),> 100 µM (inactive),> 100 µM (inactive),9.71 µM (inactive),> 100 µM (inactive),> 100 µM (inactive),,,> 100 µM (inactive),> 100 µM (inactive),> 100 µM (inactive),> 100 µM (inactive),> 100 µM (inactive),> 100 µM (inactive),> 100 µM (inactive)
N=C(N)N/N=C\c1c(-c2cccc([N+](=O)[O-])c2)nc2sccn12,,23.7 µM (inactive),> 100 µM (inactive),3.89 µM (inactive),18.5 µM (inactive),1.96 µM (inactive),2.79 µM (inactive),17.4 µM (inactive),1.62 µM (inactive),1.92 µM (inactive),,2.21 µM (inactive),7.73 µM (inactive),1.81 µM (inactive),18.1 µM (inactive),2.93 µM (inactive),2.1 µM (inactive),2.15 µM (inactive),2.09 µM (inactive)
Cc1ccc(-c2c(C#N)c(-c3ccc(Cl)cc3)c(C#N)c(=O)n2NS(=O)(=O)c2ccc(C)cc2)cc1,30.1 µM (inactive),74 µM (inactive),18.3 µM (inactive),21.6 µM (inactive),,37.2 µM (inactive),36.2 µM (inactive),,,16.9 µM (inactive),43.8 µM (inactive),39.4 µM (inactive),20.5 µM (inactive),26.2 µM (inactive),26.4 µM (inactive),20.7 µM (inactive),23.5 µM (inactive),38.5 µM (inactive),36.3 µM (inactive)
CC1(C)CC(C)(C)C1=NNC(N)=O,> 100 µM (inactive),> 100 µM (inactive),> 100 µM (inactive),> 100 µM (inactive),> 100 µM (inactive),> 100 µM (inactive),> 100 µM (inactive),,> 100 µM (inactive),> 100 µM (inactive),> 100 µM (inactive),> 100 µM (inactive),> 100 µM (inactive),> 100 µM (inactive),> 100 µM (inactive),> 100 µM (inactive),,> 100 µM (inactive),> 100 µM (inactive)
O=[N+]([O-])/C(C(Cl)=C(Cl)Cl)=C(/Cl)SCc1ccccc1,1.02 µM (active),3.39 µM (inactive),1.85 µM (inactive),11.3 µM (inactive),2.22 µM (inactive),11.5 µM (inactive),8.04 µM (inactive),0.889 µM (active),14.6 µM (inactive),0.393 µM (active),1.84 µM (inactive),3.61 µM (inactive),1.82 µM (inactive),1.34 µM (inactive),16.3 µM (inactive),0.202 µM (active),,2.3 µM (inactive),22.5 µM (inactive)
